From patent publication US9789159B2, “Diagnosis and treatment of prostate cancer” (The Research Foundation for The State University of New York, priority 2011, dated 2017) come the findings set out here.

For data set [1], the system named is LNCaP cell line. Conditions: VEGF 10 ng/mL or 10 nM DHT for 3, 6, 12 and 24 hr, Western blot densitometry, P<0.05 vs control. The method, then: In this example, to determine the responsiveness of Hexim-1 to androgen and VEGF in the epithelial prostate LNCap cell line, LNCap cells were treated with VEGF (10 ng/mL) or 10 nM dihydrotestosterone (DHT) for 3, 6, 12 and 24 hours, with the change in expression of Hexim-1 protein evaluated by Western blot.
FIG. 2A illustrates the epithelial prostate LNCaP cell line which was treated with VEGF (10 ng/ml) or 10 nM dihydrotestosterone (DHT) 10 nM for 3, 6, 12 and 24 hr. Protein extracts were obtained from each time point and the changes in the protein expression of Hexim-1, p-Akt and GAPDH evaluated by Western blot. The histogram indicates the ratio between p-AKT and GAPDH and the ratio of Hexim-1 to GAPDH as obtained by densitometry analysis of the Western blots. Data are expressed as means±SE of 4 independent experiments.
(A western blot detects proteins with antibodies after separation by electrophoresis.)

Data set [2] deals with androgen receptor (AR) (UniProt P19091).
Sequence of UniProt P19091 (P19091 whole entry): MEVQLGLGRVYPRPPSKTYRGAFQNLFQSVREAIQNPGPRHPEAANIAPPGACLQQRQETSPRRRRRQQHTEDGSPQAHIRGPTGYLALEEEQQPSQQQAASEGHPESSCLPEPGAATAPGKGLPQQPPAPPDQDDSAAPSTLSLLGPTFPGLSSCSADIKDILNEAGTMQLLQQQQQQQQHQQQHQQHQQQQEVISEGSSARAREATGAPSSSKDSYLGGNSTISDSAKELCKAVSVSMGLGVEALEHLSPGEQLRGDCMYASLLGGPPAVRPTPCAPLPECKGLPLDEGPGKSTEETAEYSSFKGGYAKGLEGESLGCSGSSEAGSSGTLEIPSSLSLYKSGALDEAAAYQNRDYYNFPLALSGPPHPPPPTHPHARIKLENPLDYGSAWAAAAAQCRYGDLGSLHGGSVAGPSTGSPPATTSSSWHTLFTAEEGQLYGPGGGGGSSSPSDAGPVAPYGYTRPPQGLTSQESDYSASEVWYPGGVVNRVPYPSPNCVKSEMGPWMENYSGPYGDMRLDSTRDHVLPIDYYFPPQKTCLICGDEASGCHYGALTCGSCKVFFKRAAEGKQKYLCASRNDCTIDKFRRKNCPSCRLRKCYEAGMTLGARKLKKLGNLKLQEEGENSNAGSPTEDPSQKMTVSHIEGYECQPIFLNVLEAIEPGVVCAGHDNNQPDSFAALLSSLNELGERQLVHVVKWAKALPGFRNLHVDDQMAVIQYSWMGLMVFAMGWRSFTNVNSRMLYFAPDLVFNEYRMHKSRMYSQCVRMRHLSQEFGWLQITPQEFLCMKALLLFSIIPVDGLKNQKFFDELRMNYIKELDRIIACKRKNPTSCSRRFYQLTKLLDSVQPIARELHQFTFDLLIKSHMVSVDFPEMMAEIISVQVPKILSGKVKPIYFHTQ
In data set [3] the test system is PC3 cells. Conditions: androgen independent PC3 cells; 10 nM DHT for indicated times; Western blot. The method, then: In FIG. 2B, PC3 cells were treated with 10 nM DHT for indicated times, cells were collected and cellular extracts were prepared and analyzed for Hexim-1 and GAPDH. The histogram indicates a ratio between Hexim-1 and GAPDH. Data are expressed as means±SE of 3 independent experiments.

As to VEGF, in data set [1], the “Hexim-1 protein levels (ratio of Hexim-1 to GAPDH)” value is given as “induced”; the “p-Akt levels (ratio between p-AKT and GAPDH)” value is “correlated with the increased Hexim-1 expression”.

Regarding cyclin dependent kinase 9 (Cdk9), the “serine-81 phosphorylation of the androgen receptor (Western blot after immunoprecipitation)” value in data set [2] is “the serine phosphorylation of AR is significantly increased”.

Regarding `C[C@]12CCC(=O)C[C@@H]1CC[C@@H]1[C@@H]2CC[C@]2(C)[C@@H](O)CC[C@@H]12` [DHT, dihydrotestosterone], in data set [3], the “Hexim-1 levels (ratio between Hexim-1 and GAPDH)” value is listed as “not changed”. Moreover, in data set [1], the “Hexim-1 protein levels (ratio of Hexim-1 to GAPDH)” value was “induced”; the “p-Akt levels (ratio between p-AKT and GAPDH)” value was “correlated with the increased Hexim-1 expression”.
